Assay results: patent US9198909B1, “Materials and methods for inhibiting mamalian S-nitrosoglutathione reductase” (Indiana University Research and Technology Corporation, priority 2007, dated 2015)

Key:
GSNOR = GSNOR (Homo sapiens, UniProt P11766); test: GSNOR inhibition at pH 10 (octanol, NAD+); type: biochemical; set-up: made in house; host or cells: E. coli; details: pH 10 versus pH 7.5
Experimental: Referring now to Table 1, inhibition was studied at pH 10. These assays were performed in 0.1 M sodium glycine containing 1 mM octanol, 1 mM NAD^+, 0.1 mM EDTA and 50 μM inhibitor. Inhibition studies at pH 7.5 were performed in 50 mM potassium phosphate pH 7.5 that included 15 μM NADH, 10 μM GSNO, 0.1 mM EDTA and 50 μM inhibitor. The data file to a model consisted with partial inhibition and a hill coefficient of 2.4 in the inhibition curve. The screening for GSNOR inhibitors was performed using a library of 60,000 compounds from ChemDiv Inc in the Chemical Genomics Core facility at Indiana University. Screening was conducted in 384 well plates and involved incubating GSNOR with 12.5 μM compound, 1 mM each of NAD^+ and octanol in 0.1 M sodium glycine pH 10. Enzyme activity was determined by measuring the rate of production of NADH spectrophotometrically at 340 nm. Inhibition of GSNOR was calculated from the ratio of enzyme activity in the presence of compounds to that in no compound controls performed on the same assay plate. Following their identification from the high-throughput screening, the GSNOR inhibitory properties of the initial hits were confirmed at the pH 10 using 12-hydroxydodecanoic acid as the substrate and at pH 7.5 using GSNO as the substrate (see the brief description of Table 1 for details on how the assay was carried out.)

GSNOR•NADH complex = biological target: T1, GSNOR•NADH complex (Homo sapiens, UniProt P11766); test: Fluorescence equilibrium binding to GSNOR•NADH complex; details: 1.7 μM NADH, 2 μM GSNOR, 50 μM compound 8
T1 construct: made in house; host or cells: E. coli
Experimental: Referring now to FIG. 2, (A) Changes in the fluorescence of NADH (curve a) upon sequential addition of GSNOR (curve b) and compound 8 (curve c). To a solution of 1.7 μM NADH were added 2 μM GSNOR and 50 μM compound 8 in sequence and the fluorescence of the solution measured each time (λexc=350 nm; λemm=375-550 nm); (B) Changes in the fluorescence of NADH (curve a) upon sequential addition of GSNOR (curve b), 12-HDDA (curve c) and compound 8 (curve d). To a solution of 1.7 μM NADH were added 2 μM GSNOR, 810 μM 12-HDDA and 50 μM compound 8 in sequence and the fluorescence measured each time (λexc=350 nm; λemm=375-550 nm); (C) Binding of compound 8 to GSNOR•NADH complex. The change in fluorescence of a 1.7 μM NADH and 2 μM GSNOR mixture (λexc=350 nm; λemm=455 nm) with increasing concentrations of compound 8 was fitted to a single site binding model (equation 1; see materials and methods) using the Graphpad Prizm 4. All of the fluorescence studies were conducted at room temperature in 50 mM potassium phosphate pH 7.5.
Referring now to Table 3, inhibition experiments were performed at 25° C. in 50 mM potassium phosphate (pH 7.5) including 0.1 mM EDTA. […] The dissociation constant was measured at 25° C. in 50 mM potassium phosphate pH 7.5. […]
Fluorescence studies were conducted in 50 mM potassium phosphate pH 7.5, at room temperature using a Fluoromax-2 fluorescence spectrometer (Instruments S.A., Inc., Edison, N.J.). The equilibrium dissociation constant of GSNOR inhibitors was determined by measuring the changes in the fluorescence of GSNOR bound NADH (λexc=350 nm; λemm=455 nm) upon the addition of inhibitor. […] The decrease in fluorescence at 455 nm with each addition of inhibitor was plotted against the final concentration of inhibitor and the data were fitted to equation 1 using nonlinear regression to obtain the dissociation constant of the inhibitor for GSNOR-NADH complex,
[formula] In equation 1, ΔF is the change in the fluorescence at 455 nm upon the addition of inhibitor. ΔFM is the maximum fluorescence change that was obtained from curve fitting. […]

T1 sequence (P11766 2-374 limits assumed, one chain of several): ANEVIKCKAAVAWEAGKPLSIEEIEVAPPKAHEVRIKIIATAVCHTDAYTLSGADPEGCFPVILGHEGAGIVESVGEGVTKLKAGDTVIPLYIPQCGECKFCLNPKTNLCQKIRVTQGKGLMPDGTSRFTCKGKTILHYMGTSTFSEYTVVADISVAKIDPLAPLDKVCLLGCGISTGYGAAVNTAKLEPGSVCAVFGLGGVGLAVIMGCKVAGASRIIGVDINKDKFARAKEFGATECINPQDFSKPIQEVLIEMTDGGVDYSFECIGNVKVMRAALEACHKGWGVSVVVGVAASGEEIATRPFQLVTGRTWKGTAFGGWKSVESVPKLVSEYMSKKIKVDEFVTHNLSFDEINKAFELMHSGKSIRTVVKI
GSNOR, sequence (P11766 2-374 limits assumed): as the sequence (P11766 2-374 limits assumed, one chain of several) above

## N#Cc1ccccc1CSc1nc2ccsc2c(=O)n1Cc1ccc(C(=O)O)cc1 [Compound 8]
GSNOR
  GSNOR inhibition at pH 10 compared with pH 7.5: higher GSNOR inhibition at pH 10 than at pH 7.5
GSNOR•NADH complex
  effect on fluorescence of GSNOR bound NADH: decreased the fluorescence of NADH
GSNOR•NADH complex; 810 μM 12-HDDA
  effect on GSNOR•NADH•12-HDDA complex (displacement of 12-HDDA): displaced 12-HDDA from the active site
